Laboratory results: patent US9221786B2, “2-fluorophenyl propionic acid derivatives” (LTT BIO-PHARMA CO., LTD., priority 2011, dated 2015)

Legend:
COX-2 = biological target: T1, COX-2 (Homo sapiens, UniProt P35354); assay: Human whole blood assay, in vitro COX-2 assay (LPS-stimulated, PGE2 by EIA); type: cell-based; settings: for selective inhibitory action on COX-2 activity: compared with loxoprofen (1), Table 12; for COX Selectivity COX-1/COX-2: ratio of IC50 COX-1 / IC50 COX-2, human whole blood
T1 construct: incubated at 37° C. for 24 hours to induce COX-2; from tissue; host or cells: heparinised human whole blood from healthy donors, stimulated with LPS
T1 sequence (P35354 18-604): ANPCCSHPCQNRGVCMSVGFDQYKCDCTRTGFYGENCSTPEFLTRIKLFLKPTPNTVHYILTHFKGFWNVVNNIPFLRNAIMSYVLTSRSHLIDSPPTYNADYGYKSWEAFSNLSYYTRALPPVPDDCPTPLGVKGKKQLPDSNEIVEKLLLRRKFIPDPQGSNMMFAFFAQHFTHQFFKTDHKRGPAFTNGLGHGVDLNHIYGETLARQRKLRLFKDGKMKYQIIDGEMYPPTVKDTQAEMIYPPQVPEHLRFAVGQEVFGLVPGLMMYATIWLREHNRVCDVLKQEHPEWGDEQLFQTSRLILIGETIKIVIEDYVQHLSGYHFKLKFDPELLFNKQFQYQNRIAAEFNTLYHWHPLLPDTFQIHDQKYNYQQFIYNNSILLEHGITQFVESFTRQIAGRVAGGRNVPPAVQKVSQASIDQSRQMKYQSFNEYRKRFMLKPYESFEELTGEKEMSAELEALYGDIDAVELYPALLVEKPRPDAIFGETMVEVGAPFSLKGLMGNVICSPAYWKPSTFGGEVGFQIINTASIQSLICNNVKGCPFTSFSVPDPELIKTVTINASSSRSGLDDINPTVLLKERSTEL
Procedure: Human Whole Blood Assay (In Vitro)
This test was carried out according to the method described in Inflamm. Res., 45: 68-74 (1996).
As blood donors, persons who were healthy on the day of collecting and had not taken NSAIDs for at least a week or more were selected.
Blood was collected in test tubes treated with heparin (Venoject II blood collection tubes, produced by TERUMO CORPORATION). To the test tubes, inflammatory stimulant lipopolysaccharide (LPS) [Sigma-Aldrich Japan Inc., #L2880 from E. coli 055:B5; diluted with phosphate buffered saline (PBS) at a final concentration of 100 μg/mL] was added. Aliquots of 500 μL were dispensed in the tubes, and 2 μL of a solution of a test compound (final concentration: 0.1 μM to 1000 μM) in a suitable solvent (DMSO or MilliQ water) was added to the tubes and incubated at 37° C. for 24 hours to induce COX-2.
After the incubation, the sample was centrifuged at 12,000×g for 5 minutes to separate blood serum. To remove protein from blood, 100 μL of obtained blood serum was added to 400 μL of ethanol, and the mixture was centrifuged again at 12,000×g for 5 minutes. PGE2 in the supernatant was quantitatively determined using an enzyme immunoassay (EIA) kit [Cayman (Ann, Arbor, Mich., USA) #514040] according to the attached protocol.

Male Wister rats [1] = assay: Gastric ulceration after oral administration (lesion index); type: in vivo, rat; settings: rats fasted 18 hours, stomach excised after 8 hours, FIG. 1, versus loxoprofen (1)
Procedure: This test was carried out according to the method described in Biochem. Pharmacol., 67; 575-85 (2004).
Male Wister rats (weight: 180 to 200 g) were fasted for 18 hours, and a test compound was orally administered to the rats. After 8 hours, the stomach was excised and the area of ulcers found in the stomach was measured. The total area of all ulcers was represented as the lesion index.

Male Wister rats [2] = assay: Effect on carrageenin-induced edema; type: in vivo, rat; settings: oral, 1 hour before carrageenin, 3 and 6 hours, FIG. 2
Procedure: B: Effect on Carrageenin-Induced Edema
This test was carried out according to the method described in Br. J. Pharmacol., 151; 285-91 (2007).
Male Wister rats (weight: 180 to 200 g) were fasted for 18 hours, and a test compound was orally administered to the rats. After 1 hour, 100 μL of 1% carrageenin (dissolved in physiological saline) was subcutaneously injected into the left footpad to induce edema.
Before carrageenin administration, and three hours and six hours after carrageenin administration, the leg volume was measured using a plethysmometer.
The edema inhibition rate is calculated on the basis of the following equation. Inhibition rate(%)=100−(edema volume when a compound was administrated/edema volume when a vehicle was administrated)×100.

[3] = earlier work of the inventors, Patent Literature 1; cited from earlier work
[4] = compared with loxoprofen; earlier work, Patent Literature 1; cited from earlier work

Row | SMILES | selective inhibitory action on COX-2 activity (COX-2) | COX Selectivity COX-1/COX-2 (COX-2) | gastric ulceration / gastric damage (Male Wister rats [1]) | anti-inflammatory effect (edema inhibition) (Male Wister rats [2]) | ulceration action [3] | anti-inflammatory effect [4]
1 | CC(C(=O)O)c1ccc(NC2CCCC2)cc1F (stereo not drawn) [Compound 11a, 2-[4-(cyclopentylamino)-2-fluoro-phenyl]propionic acid] | weaker selective inhibitory action on COX-2 activity than loxoprofen (1) | 0.7 | gastric ulceration was significantly reduced | excellent anti-inflammatory effect | – | –
2 | CC(C(=O)O)c1ccc(CC2CCCC2=O)cc1F (stereo not drawn) [Compound 2, 2-fluoroloxoprofen] | – | 1.7 | – | – | low ulceration action | same anti-inflammatory effect as loxoprofen
3 | CC(C(=O)O)c1ccc(CC2CCCC2=O)cc1 (stereo not drawn) [Compound 1, Loxoprofen, reference compound] | – | 2.3 | – | – | – | –
4 | CC(C(=O)O)c1ccc(OC2CCCC2)cc1F (racemic) [Compound 14, 2-[4-(cyclopentyloxy)-2-fluorophenyl]-propionic acid] | weaker selective inhibitory action on COX-2 activity than loxoprofen (1) | 0.1 | gastric ulceration was significantly reduced | excellent anti-inflammatory effect | – | –
5 | CC(C(=O)O)c1ccc(Cc2ccco2)cc1F (stereo not drawn) [Compound 21a, 2-[2-fluoro-4-(furan-2-ylmethyl)-phenyl]propionic acid] | – | 5.3 | significantly reducing gastric damage | same level of anti-inflammatory effect as loxoprofen (1) | – | –
6 | CC(C(=O)O)c1ccc(Cc2ccoc2)cc1F (racemic) [Compound 22a, 2-[2-fluoro-4-(furan-3-ylmethyl)-phenyl]propionic acid] | – | 7.6 | significantly reducing gastric damage | same level of anti-inflammatory effect as loxoprofen (1) | – | –
